The source of these data is article PMC5034864 (Molecular microbiology, 2012).

Among the targets are PA4324 (Pseudomonas aeruginosa, UniProt Q9HW77); YcgR (STM1798) (Salmonella enterica, UniProt Q8ZP19); PA3353 (Pseudomonas aeruginosa, UniProt Q9HYP3).
Assay in all cases: FRET of YPet-PilZ-CyPet fusion protein, titration
Holding throughout (format): binding

The target in assay [1] is BcsA (STM3619) PilZ domain (Salmonella enterica, UniProt Q93IN2).
Sequence of BcsA (STM3619) PilZ domain (Q93IN2 691-791): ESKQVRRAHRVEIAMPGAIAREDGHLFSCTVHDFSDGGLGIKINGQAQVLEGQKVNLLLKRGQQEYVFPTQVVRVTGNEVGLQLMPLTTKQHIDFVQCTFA

Sequence of YcgR (STM1798) (Q8ZP19 whole entry, the tested form may be a part): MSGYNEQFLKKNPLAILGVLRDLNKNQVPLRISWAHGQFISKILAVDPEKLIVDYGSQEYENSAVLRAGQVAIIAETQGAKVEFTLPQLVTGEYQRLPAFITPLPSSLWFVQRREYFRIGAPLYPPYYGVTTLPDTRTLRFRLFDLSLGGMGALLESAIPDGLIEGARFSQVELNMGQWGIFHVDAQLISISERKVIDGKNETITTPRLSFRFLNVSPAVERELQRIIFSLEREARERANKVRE

For `Nc1nc2c(ncn2[C@@H]2O[C@@H]3CO[P@](=O)(O)O[C@H]4[C@@H](O)[C@H](n5cnc6c(=O)[nH]c(N)nc65)O[C@@H]4CO[P@](=O)(O)O[C@H]3[C@H]2O)c(=O)[nH]1` [c-di-GMP], the Kd (as a rule, the free concentration of one partner at which half of the binding sites on the other are occupied at equilibrium, for simple one-to-one binding) at PA4324 was 735 ± 474 nM; on YcgR (STM1798) it was 191 ± 18 nM; in assay [1], 8.24 ± 0.238 µM; on PA3353 it was 88 ± 17 nM.
